Test results: patent US12070031B2 (priority 2020, dated 2024)
Where a name gives a salt, the structure may show the parent alone.

How the values were obtained:
[1] = test system: tomato plants (Solanum lycopersicum); assay: Phytotoxicity after foliar application; type: in vivo; set-up: key to Phytotoxicity, Tomato sp.: No toxicity (−); symptoms appear on less than 5% of the leaves was rated as minimal (+); 5 to 50% was rated as moderate (++); above 50% was rated as severe (+++); conditions: for Phytotoxicity, Tomato sp.: foliar, 72 h
Description: The phytotoxicity of the ZnNP adjuvant with and without streptomycin was tested on tomato plants (Solanum lycopersicum, model fruit plant, 11 cm tall) obtained from Home Depot. The ZnNP treatments were applied directly on plant leaves (foliar application) using a hand-held sprayer until excess liquid starts dripping. Foliar application was conducted at 8:00 a.m. in a greenhouse setting to simulate field conditions. Treated plants were then placed in a growth chamber, Panasonic environmental test chamber (model MLR-352H) with summer settings (34° C., 60-80% RH). Phytotoxicity was evaluated 72 h post application. Digital photographs of treated leaves were taken for the visual assessment (phenotypic) plant tissue damage. Parallel treatments were done with copper sulfate at 1000 μg/mL (positive control) and DI water (untreated control, UTC) to compare phytotoxicity level with the ZnNP treatments. The appearance of brown necrotic spots, chlorosis, and necrosis on the leaves is indicative of plant tissue damage (i.e. phytotoxicity). Phytotoxicity was rated as follows: No toxicity (−), symptoms appear on less than 5% of the leaves was rated as minimal (+), 5 to 50% was rated as moderate (++), and above 50% was rated as severe (+++). Phytotoxicity studies were carried out in triplicate for each treatment and concentration.

X. alfalfae [2] = assay: MIC by broth microdilution (CLSI) with resazurin; type: cell-based, Xanthomonas alfalfae subsp. citrumelonis
Description: (§1) The antimicrobial efficacy of the ZnNP-Strep and controls were evaluated by the antimicrobial assay methods as previously described. Briefly, Microplate Alamar Blue Assay (MABA) was performed to initially screen the antimicrobial efficacy of the NPs. Then, the minimum inhibitory concentration (MIC) was determined by broth microdilution method in accordance with the guidelines of the Clinical and Laboratory Standards Institute (CLSI). As per the CLSI requirements, from a starter culture of 0.5 McFarland Standard, 5×10^5 CFU/well was added to all the wells. […] The accuracy of the MIC determination was improved by adding 10 μL of resazurin dye (0.0125%, w/v) per 100 μL well volume and observing color changes (from blue to pink for live organisms).

P. syringae = assay: MIC by broth microdilution (CLSI) with resazurin; type: cell-based, Pseudomonas syringae
Description: as §1

E. coli = assay: MIC by broth microdilution (CLSI) with resazurin; type: cell-based, Escherichia coli
Description: as §1

X. alfalfae [3] = assay: MIC of ZnNP-Strep after dialysis (simulated rainfall); type: cell-based, Xanthomonas alfalfae subsp. citrumelonis; conditions: Xanthomonas alfalfae; dialysis time N/A; relative to streptomycin concentration
Description: as §1
The antimicrobial efficacy of ZnNP-Strep was also studied after dialysis of the particles. […] The particles were dialyzed for 0, 1, 3, and 12 h and the remaining streptomycin loaded on the particles for each timepoint was quantified by LCMS by diluting the particles with 1% HCl and analyzing them with the previously described method. After streptomycin quantification the particles were diluted to 500 ppm streptomycin and their antimicrobial efficacy was assessed via MIC assay described above. The minimum bactericidal concentration (MBC) of the particles was also assessed by performing colony forming unit (CFU) plating. […]

X. alfalfae [4] = assay: MBC by CFU plating after dialysis; type: cell-based, Xanthomonas alfalfae subsp. citrumelonis; conditions: Xanthomonas alfalfae; dialysis time N/A; relative to streptomycin concentration
Description: The antimicrobial efficacy of ZnNP-Strep was also studied after dialysis of the particles. The particles were dialyzed to remove any unbound streptomycin and simulate the effect of rainfall on the particles in field conditions. […] The particles were dialyzed for 0, 1, 3, and 12 h and the remaining streptomycin loaded on the particles for each timepoint was quantified by LCMS by diluting the particles with 1% HCl and analyzing them with the previously described method. After streptomycin quantification the particles were diluted to 500 ppm streptomycin and their antimicrobial efficacy was assessed via MIC assay described above. The minimum bactericidal concentration (MBC) of the particles was also assessed by performing colony forming unit (CFU) plating. After 24 h incubation of bacteria with the samples, 100 μL of the treated bacteria was then transferred to nutrient agar plates. They were then spread dry using sterile spreaders (Fisher Scientific) and incubated for 48 h to check for bacterial growth at each concentration tested.

[5] = 24 h incubation, concentration active
[6] = highest concentration tested, 1000 μg/mL

O=S(=O)([O-])[O-].[Cu+2] [Copper sulfate, copper sulfate]
Phytotoxicity, Tomato sp. ([1]; 1000 μg/mL Cu): +++ (above 50% was rated as severe (+++)) | signs of phytotoxicity (visual) ([1]; 72 hrs after foliar application): many brown spots

CC(=O)N[C@@H](CS)C(=O)O [NAC, N-acetylcysteine]
X. alfalfae (MIC) (X. alfalfae [2]; [5]): No inhibition | growth inhibitory effect (X. alfalfae [2]; [6]): no growth inhibitory effect | P. syringae (MIC) (P. syringae; [5]): No inhibition | growth inhibitory effect (P. syringae; [6]): no growth inhibitory effect | E. coli (MIC) (E. coli; [5]): No inhibition | growth inhibitory effect (E. coli; [6]): no growth inhibitory effect

[H]/N=C(/N)N[C@H]1[C@H](O)[C@@H](O)[C@H](O[C@@H]2O[C@@H](C)[C@](O)(C=O)[C@H]2O[C@@H]2O[C@@H](CO)[C@H](O)[C@@H](O)[C@@H]2NC)[C@@H](N/C(N)=N\[H])[C@@H]1O [Streptomycin sulfate, streptomycin sulfate]
MIC (X. alfalfae [2]; Xanthomonas alfalfae, 24 h incubation, concentration active): 2 µg/mL | MIC (P. syringae; Pseudomonas syringae, 24 h incubation, concentration active): 2 µg/mL | MIC (E. coli; Escherichia coli, 24 h incubation, concentration active): 6 µg/mL | MIC (X. alfalfae [3]): 1 µg/mL | MBC (X. alfalfae [4]): 16 µg/mL | Phytotoxicity, Tomato sp. ([1]; 1000 μg/mL Strep): −
